Measured values reported in patent US7148352B2, “Method of inhibiting neurotrophin-receptor binding” (Queen's University at Kingston, priority 1999, dated 2006).
Values joined by “and” are separate entries in the source; they are usually repeats but may differ in a detail not shown here. Equal entries are not always repeated.

What was measured:
Design in all cases: species or system rat
[1] = tested on: p75^NTR (PC12^nnr5 cells, expressing p75^NTR only); test: 125I-NGF receptor binding to PC12^nnr5 cells in the presence of competitor; conditions: compound 50 μM, 125I-NGF 1 nM, 2 h at 4° C.; for nnr5 % of Max, Avg: average of three values; for nnr5 % of Max (individual determinations): receptor binding as percentage of binding in absence of competitor
Protocol: (§1) The radio-iodination and receptor binding of NGF (Sutter et al., 1979) was performed with modifications (Ross et al., 1997) as follows: Evaluation of the ability of NCP compounds to inhibit TrkA and p75^NTR binding was determined by the binding of ^125I-NGF to PC12 cells (rat pheochromocytoma cells expressing TrkA and p75^NTR; obtained from ATCC) and PC12^nnr5 (rat pheochromocytoma cells expressing p75^NTR only; obtained from Dr. L. Greene, Columbia University, NY). The p75^NTR is in a low affinity state and a high affinity state, respectively, in these cell types (Ross et al., 1998). PC12 and PC12^nnr5 cells were grown in RPMI (Sigma) with 10% heat inactivated donor horse serum and 5% fetal calf serum. Cells were harvested by replacing the medium with calcium, magnesium-free balanced salt solution (Gey's solution) and incubating at 37° C. for 15 minutes. Cells were pelleted by centrifugation and suspended in HKR buffer (10 mM Hepes [pH 7.35] containing 125 mM NaCl, 4.8 mM KCl, 1.3 mM CaCl2, 1.2 mM MgSO4, 1.2 mM KH2PO4, 1 g/L glucose and 1 g/L BSA) at a cell concentration of 2×10^6/mL and kept at 4° C. Triplicate tubes were set up for total binding, non-specific binding and binding in the presence of candidate competitor molecule (i.e., a tube for each data point). Each tube contained ^125I-NGF (at 1 nM), 400,000 cells (for a final cell concentration of 10^6/mL) and NGF (50 nM, to define non-specific binding), as required. The tubes were incubated for 2 h at 4° C. and specific binding evaluated by measuring specifically bound DPM (Ross et al., 1997). Data were analysed and the results expressed as receptor binding observed in the presence of competitor (e.g. NCP compounds) as a percentage of receptor binding in the absence of a competitor.

[2] = target: T1, TrkA and p75^NTR (PC12 cells) (Mus musculus, UniProt P01139); test: 125I-NGF receptor binding to PC12 cells in the presence of competitor; conditions: compound 50 μM; 125I-NGF 1 nM; 2 h at 4° C.; average of three values
T1 construct: PC12 cells (rat pheochromocytoma cells expressing TrkA and p75^NTR; obtained from ATCC); host or cells: PC12 rat pheochromocytoma cells (intact, in suspension)
Protocol: as §1

[3] = tested on: T2, TrkA and p75^NTR (PC12 cells); test: as above; conditions: compound 50 μM; 125I-NGF 1 nM; 2 h at 4° C.; receptor binding as percentage of binding in absence of competitor
T2 construct: PC12 cells (rat pheochromocytoma cells expressing TrkA and p75^NTR; obtained from ATCC); host or cells: PC12 rat pheochromocytoma cells (intact, in suspension)
Protocol: as §1

T2 sequence (P01139 122-241): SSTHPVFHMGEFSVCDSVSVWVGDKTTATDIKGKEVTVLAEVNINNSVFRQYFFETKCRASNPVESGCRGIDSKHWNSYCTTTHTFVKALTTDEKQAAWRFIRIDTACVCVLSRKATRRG
T1 sequence (P01139 122-241): as above

Row | Compound | nnr5 % of Max, Avg [1] | nnr5 % of Max (individual determinations) [1] | PC12 % of Max, Avg [2] | PC12 % of Max (individual determinations) [3]
1 | O=C(O)c1ccc2c(c1)C(=O)N(c1ccccc1)C2=O [Compound 109, 4-carboxy-N-phenylphthalimide] | = 73 % of Max | 70 % of Max and 74 % of Max and 75 % of Max | = 56 % of Max | 50 % of Max and 60 % of Max and 57 % of Max
2 | O=C(O)CN1C(=O)c2cccc([N+](=O)[O-])c2C1=O [Compound 120, 3-nitro-N-(1-carboxymethyl)phthalimide] | = 183 % of Max | 218 % of Max and 200 % of Max and 130 % of Max | = 109 % of Max | 133 % of Max and 92 % of Max and 103 % of Max
3 | O=C(O)CCN1C(=O)c2cccc([N+](=O)[O-])c2C1=O [Compound 121, 3-nitro-N-(2-carboxyethyl)phthalimide] | = 165 % of Max | 204 % of Max and 188 % of Max and 103 % of Max | = 103 % of Max | 121 % of Max and 92 % of Max and 103 % of Max
4 | O=C(O)CCCN1C(=O)c2cccc([N+](=O)[O-])c2C1=O [Compound 122, 3-nitro-N-(3-carboxypropyl)phthalimide] | = 163 % of Max | 232 % of Max and 152 % of Max and 104 % of Max | = 97 % of Max | 106 % of Max and 88 % of Max and 98 % of Max
5 | O=C(O)CCCCN1C(=O)c2cccc([N+](=O)[O-])c2C1=O [Compound 123, 3-nitro-N-(4-carboxybutyl)phthalimide] | = 150 % of Max | 172 % of Max and 161 % of Max and 117 % of Max | = 97 % of Max | 118 % of Max and 75 % of Max and 98 % of Max
6 | O=C(O)CCCCCN1C(=O)c2cccc([N+](=O)[O-])c2C1=O [Compound 124, 3-nitro-N-(5-carboxypentyl)phthalimide] | = 153 % of Max | 166 % of Max and 182 % of Max and 110 % of Max | = 92 % of Max | 117 % of Max and 71 % of Max and 89 % of Max
7 | O=C(O)c1ccc(N2C(=O)c3cccc([N+](=O)[O-])c3C2=O)cc1 [Compound 125, 3-nitro-N-(p-carboxyphenyl)phthalimide] | = 49 % of Max | 47 % of Max (2×) and 54 % of Max | = 90 % of Max | 83 % of Max and 87 % of Max and 99 % of Max
8 | O=C(O)c1cccc(N2C(=O)c3cccc([N+](=O)[O-])c3C2=O)c1 [Compound 126, 3-nitro-N-(m-carboxyphenyl)phthalimide] | = 52 % of Max | 34 % of Max and 54 % of Max and 69 % of Max | = 77 % of Max | 90 % of Max and 69 % of Max and 72 % of Max
9 | O=C(O)c1ccccc1N1C(=O)c2cccc([N+](=O)[O-])c2C1=O [Compound 127, 3-nitro-N-(o-carboxyphenyl)phthalimide] | = 112 % of Max | 136 % of Max and 129 % of Max and 71 % of Max | = 118 % of Max | 140 % of Max and 101 % of Max and 114 % of Max
10 | O=C(O)CN1C(=O)c2ccc([N+](=O)[O-])cc2C1=O [Compound 140, 4-nitro-N-(1-carboxymethyl)phthalimide] | = 99 % of Max | 89 % of Max and 108 % of Max and 100 % of Max | = 111 % of Max | 100 % of Max and 126 % of Max and 108 % of Max
11 | O=C(O)CCN1C(=O)c2ccc([N+](=O)[O-])cc2C1=O [Compound 141, 4-nitro-N-(2-carboxyethyl)phthalimide] | = 96 % of Max | 98 % of Max and 114 % of Max and 77 % of Max | = 90 % of Max | 74 % of Max and 108 % of Max and 87 % of Max
12 | O=C(O)CCCN1C(=O)c2ccc([N+](=O)[O-])cc2C1=O [Compound 142, 4-nitro-N-(3-carboxypropyl)phthalimide] | = 51 % of Max | 52 % of Max and 51 % of Max (2×) | = 66 % of Max | 55 % of Max and 77 % of Max and 67 % of Max
13 | O=C(O)CCCCN1C(=O)c2ccc([N+](=O)[O-])cc2C1=O [Compound 143, 4-nitro-N-(4-carboxybutyl)phthalimide] | = 75 % of Max | 76 % of Max and 79 % of Max and 71 % of Max | = 78 % of Max | 65 % of Max and 97 % of Max and 72 % of Max
14 | O=C(O)CCCCCN1C(=O)c2ccc([N+](=O)[O-])cc2C1=O [Compound 144, 4-nitro-N-(5-carboxypentyl)phthalimide] | = 73 % of Max | 74 % of Max (2×) and 70 % of Max | = 78 % of Max | 68 % of Max and 89 % of Max and 77 % of Max
15 | O=C(O)c1ccc(N2C(=O)c3ccc([N+](=O)[O-])cc3C2=O)cc1 [Compound 145, 4-nitro-N-(p-carboxyphenyl)phthalimide] | = 78 % of Max | 76 % of Max and 86 % of Max and 71 % of Max | = 70 % of Max | 60 % of Max and 77 % of Max and 73 % of Max
16 | Nc1ccc2c(c1)C(=O)N(c1ccc(C(=O)O)cc1)C2=O [Compound 165, 4-amino-N-(p-carboxyphenyl)phthalimide] | = 61 % of Max | 61 % of Max and 53 % of Max and 68 % of Max | = 49 % of Max | 54 % of Max and 53 % of Max and 40 % of Max
17 | Nc1ccc2c(c1)C(=O)N(c1cccc(C(=O)O)c1)C2=O [Compound 166, 4-amino-N-(m-carboxyphenyl)phthalimide] | = 58 % of Max | 55 % of Max and 64 % of Max and 56 % of Max | = 57 % of Max | 43 % of Max and 58 % of Max and 71 % of Max
18 | O=C(O)c1ccc(N2C(=O)c3cccc4cc([N+](=O)[O-])cc(c34)C2=O)cc1 [Compound 205, 3-nitro-N-(p-carboxyphenyl)-1,8-naphthalimide] | = 9 % of Max | 0 % of Max and 11 % of Max and 15 % of Max | = 17 % of Max | 16 % of Max and 19 % of Max and 15 % of Max
19 | O=C(O)c1cccc(N2C(=O)c3cccc4cc([N+](=O)[O-])cc(c34)C2=O)c1 [Compound 206, 3-nitro-N-(m-carboxyphenyl)-1,8-naphthalimide] | = 23 % of Max | 20 % of Max and 17 % of Max and 33 % of Max | = 30 % of Max | 25 % of Max and 29 % of Max and 35 % of Max
